Values of other authors as cited in patent US11147777B1, “Methods and formulations for efficacious pain relief by transdermal delivery of cannabidiol” (CHARLOTTE'S WEB, INC., priority 2017, dated 2021).

Biological target: T1, mTRPM8 (Mus musculus, UniProt Q8R4D5)
T1 construct: expressed in transfected cells; host or cells: HEK293
Conditions: normalized to the efficacy of icilin, as disclosed by Behrendt et al.

T1 sequence (Q8R4D5 whole entry): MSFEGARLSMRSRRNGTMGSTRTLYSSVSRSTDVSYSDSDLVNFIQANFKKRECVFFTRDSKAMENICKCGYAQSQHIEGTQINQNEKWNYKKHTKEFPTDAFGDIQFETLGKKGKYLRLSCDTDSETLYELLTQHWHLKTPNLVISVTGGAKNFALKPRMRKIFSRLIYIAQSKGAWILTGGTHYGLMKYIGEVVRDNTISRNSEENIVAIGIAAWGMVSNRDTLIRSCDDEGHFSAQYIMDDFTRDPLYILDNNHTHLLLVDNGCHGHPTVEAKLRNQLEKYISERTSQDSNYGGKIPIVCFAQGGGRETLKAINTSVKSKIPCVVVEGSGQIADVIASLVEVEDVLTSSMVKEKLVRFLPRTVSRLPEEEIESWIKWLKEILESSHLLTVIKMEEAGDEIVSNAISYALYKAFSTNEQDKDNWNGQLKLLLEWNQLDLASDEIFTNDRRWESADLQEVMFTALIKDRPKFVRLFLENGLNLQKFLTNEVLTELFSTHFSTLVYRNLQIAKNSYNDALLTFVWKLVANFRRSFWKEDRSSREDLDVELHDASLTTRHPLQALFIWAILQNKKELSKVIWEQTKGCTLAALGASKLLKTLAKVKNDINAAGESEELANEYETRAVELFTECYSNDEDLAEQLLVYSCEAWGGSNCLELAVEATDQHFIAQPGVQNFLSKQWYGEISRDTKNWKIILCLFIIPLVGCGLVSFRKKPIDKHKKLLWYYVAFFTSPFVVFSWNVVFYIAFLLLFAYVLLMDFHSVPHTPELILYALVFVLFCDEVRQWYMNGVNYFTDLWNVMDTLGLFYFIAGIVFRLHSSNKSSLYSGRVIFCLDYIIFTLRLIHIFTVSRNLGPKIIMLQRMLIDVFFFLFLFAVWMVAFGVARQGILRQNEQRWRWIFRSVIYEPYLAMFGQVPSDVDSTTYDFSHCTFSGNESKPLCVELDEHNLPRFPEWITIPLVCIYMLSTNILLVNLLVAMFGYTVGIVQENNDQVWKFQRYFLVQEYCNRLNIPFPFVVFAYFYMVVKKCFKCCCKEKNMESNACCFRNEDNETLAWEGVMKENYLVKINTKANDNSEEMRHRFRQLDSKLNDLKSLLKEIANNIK

CC1CCC(C(C)C)C(O)C1 (stereo not shown) [menthol]
relative efficacy as TRPM8 agonist on icilin-normalized scale (100 menthol = 70 icilin): 70
